pIC50: −log10 of the molar value. Where a SMILES comes first, the peptide text is derived from it.
Experiments:
[1] = molecular target: T1, human urinary angiotensin converting enzyme (Homo sapiens, UniProt P12821); experiment: Inhibition of hydrolysis of [3H]benzoyl-Gly-His-Leu by human urinary angiotensin converting enzyme; format: biochemical; conditions: [3H]benzoyl-Gly-His-Leu 100 μM (approximately one-half of Km), 37° C., 15 min., pH 8.0; read-out: I50
T1 construct: human urinary angiotensin converting enzyme, prepared as described by Ryan, J., et al; from tissue; host or cells: human urine
Description: ΔPro^3 -BPP9a, ΔPro^5 -BPP9a, ΔPro^8 -BPP9a, and ΔPro^9 -BPP9a were each compared with BPP9a (<Glu-Trp-Pro-Arg-Pro-Gln-Ile-Pro-Pro; also known as SQ 20,881) for their abilities to inhibit the hydrolysis of [^3 H]benzoyl-Gly-His-Leu by human urinary angiotensin converting enzyme, prepared as described by Ryan, J., et al., Tissue and Cell 10, 555 (1978). A standard amount of enzyme (the amount required to hydrolyze 8% of substrate during the course of incubation at 37° C. for 15 min.) was incubated with [^3 H]benzoyl-Gly-His-Leu in a final reaction volume of 100 μl or 110 μl. The reaction mixture contained 0.05 M Hepes buffer, pH 8.0, 0.1 M NaCl, 0.75 M Na2 SO4, [^3 H]-benzoyl-Gly-His-Leu (100 μM at 10 mCi/mmole, enzyme and varying concentrations of inhibitor, from […]. Net enzyme activity was measured in terms of the rate of formation of [^3 H]benzoyl-glycine (^3 H-hippuric acid). Under the conditions of the assay, the initial substrate concentration is approximately one-half of Km. Results are expressed as I50 values, i.e., the concentration of a given inhibitor required to reduce enzyme activity by half.
These factors include the source of enzyme, its purity, the substrate used and its concentration, and the composition of the assay buffer. […] For example, Cushman, et al., supra, reported an I50 value for BPP9a of approximately 1000 nM, whereas Dorer, F.E., et al., Biochim. Biophys. Acta 429, 220 (1976) reported I50 values in the range 12nM-15nM. The sources of such variations are not known.

guinea pigs = experiment: Mean arterial blood pressure of guinea pigs anesthetized with pentobarbital; format: in vivo, guinea pig; conditions: single intravenous injection, 2 mg; for ill effects in test animals: blood pressure reduced to shock levels; for abnormalities in the electrocardiogram: Lead II monitored
Description: ΔPro^3 -BPP9a and ΔPro^5 -BPP9a were tested for their ability to reduce mean arterial blood pressure of guinea pigs anesthetized with pentobarbital, an anesthetic thought to activate the renin-angiotensin system. Female guinea pigs (500-700 g body wgt.) of the Ft. Detrick-Hartley strain were injected intraperitoneally with pentobarbital, 30 mg/kg. Tracheostomy was performed, and the animals were ventilated with a small animal respirator. A polyethylene cannula was inserted into a femoral vein, and heparin, 1,000 units, was injected. A second cannula was inserted into a femoral artery for measurement of arterial blood pressure. The arterial cannula was connected to a pressure transducer, and the transducer was connected to a polygraph. Lead II of the electrocardiogram was monitored continuously.
Each of three guinea pigs received a single intravenous injection of ΔPro^3 -BPP9a, 2 mg in 0.25 ml of 0.9% (w/v) NaCl. On average, mean arterial blood pressure fell by 57.2% (81.7 mmHg to 35 mmHg). The maximum reduction was achieved within 15 sec. of injection. Each of seven guinea pigs received a single intravenous injection of ΔPro^5 -BPP9a, 2 mg in 0.25 ml of saline.

[2] = cited from earlier work
patients = conditions: cited from earlier work
[3] = tested on: patients with hypertension; conditions: cited from earlier work
ACE [4] = molecular target: T2, ACE (Oryctolagus cuniculus, UniProt P12822); conditions: read-out: I50 reported by Cushman, et al.; literature value; cited from earlier work
T2 sequence (P12822 34-1310): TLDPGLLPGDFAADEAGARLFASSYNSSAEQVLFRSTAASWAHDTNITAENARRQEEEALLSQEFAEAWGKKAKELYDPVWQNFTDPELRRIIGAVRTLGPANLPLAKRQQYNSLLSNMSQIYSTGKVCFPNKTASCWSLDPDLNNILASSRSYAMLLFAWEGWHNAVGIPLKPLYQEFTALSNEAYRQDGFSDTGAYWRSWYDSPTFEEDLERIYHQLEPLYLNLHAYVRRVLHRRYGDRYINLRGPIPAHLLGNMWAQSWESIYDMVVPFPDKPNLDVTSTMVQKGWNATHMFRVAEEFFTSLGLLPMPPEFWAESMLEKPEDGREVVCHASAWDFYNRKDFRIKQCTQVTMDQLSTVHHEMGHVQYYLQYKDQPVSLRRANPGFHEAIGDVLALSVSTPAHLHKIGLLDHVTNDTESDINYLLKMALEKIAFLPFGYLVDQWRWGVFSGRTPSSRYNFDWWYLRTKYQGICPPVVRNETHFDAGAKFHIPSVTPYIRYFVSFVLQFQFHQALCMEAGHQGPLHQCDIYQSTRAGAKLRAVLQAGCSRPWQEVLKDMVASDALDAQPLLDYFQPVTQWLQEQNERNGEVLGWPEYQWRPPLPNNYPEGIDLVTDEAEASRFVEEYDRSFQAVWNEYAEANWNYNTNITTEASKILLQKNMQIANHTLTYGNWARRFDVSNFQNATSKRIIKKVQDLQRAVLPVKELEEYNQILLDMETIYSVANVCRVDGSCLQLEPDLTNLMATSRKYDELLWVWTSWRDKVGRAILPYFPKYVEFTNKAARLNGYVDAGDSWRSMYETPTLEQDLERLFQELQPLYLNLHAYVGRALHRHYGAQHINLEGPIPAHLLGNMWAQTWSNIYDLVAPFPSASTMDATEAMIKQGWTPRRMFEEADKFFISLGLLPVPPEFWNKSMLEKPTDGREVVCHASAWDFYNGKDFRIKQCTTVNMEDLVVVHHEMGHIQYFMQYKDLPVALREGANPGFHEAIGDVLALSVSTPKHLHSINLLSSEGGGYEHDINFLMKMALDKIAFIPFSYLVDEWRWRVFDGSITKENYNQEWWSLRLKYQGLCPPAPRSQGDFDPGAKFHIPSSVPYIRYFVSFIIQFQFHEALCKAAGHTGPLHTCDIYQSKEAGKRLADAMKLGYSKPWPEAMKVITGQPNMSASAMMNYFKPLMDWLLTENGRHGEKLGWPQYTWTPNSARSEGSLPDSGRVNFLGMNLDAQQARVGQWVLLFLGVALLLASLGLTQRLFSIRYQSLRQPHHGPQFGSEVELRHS

ACE [5] = molecular target: ACE (Homo sapiens, UniProt P12821); experiment: biochemical
Chain of ACE (Homo sapiens, UniProt P12821) (P12821 30-1306, species assumed): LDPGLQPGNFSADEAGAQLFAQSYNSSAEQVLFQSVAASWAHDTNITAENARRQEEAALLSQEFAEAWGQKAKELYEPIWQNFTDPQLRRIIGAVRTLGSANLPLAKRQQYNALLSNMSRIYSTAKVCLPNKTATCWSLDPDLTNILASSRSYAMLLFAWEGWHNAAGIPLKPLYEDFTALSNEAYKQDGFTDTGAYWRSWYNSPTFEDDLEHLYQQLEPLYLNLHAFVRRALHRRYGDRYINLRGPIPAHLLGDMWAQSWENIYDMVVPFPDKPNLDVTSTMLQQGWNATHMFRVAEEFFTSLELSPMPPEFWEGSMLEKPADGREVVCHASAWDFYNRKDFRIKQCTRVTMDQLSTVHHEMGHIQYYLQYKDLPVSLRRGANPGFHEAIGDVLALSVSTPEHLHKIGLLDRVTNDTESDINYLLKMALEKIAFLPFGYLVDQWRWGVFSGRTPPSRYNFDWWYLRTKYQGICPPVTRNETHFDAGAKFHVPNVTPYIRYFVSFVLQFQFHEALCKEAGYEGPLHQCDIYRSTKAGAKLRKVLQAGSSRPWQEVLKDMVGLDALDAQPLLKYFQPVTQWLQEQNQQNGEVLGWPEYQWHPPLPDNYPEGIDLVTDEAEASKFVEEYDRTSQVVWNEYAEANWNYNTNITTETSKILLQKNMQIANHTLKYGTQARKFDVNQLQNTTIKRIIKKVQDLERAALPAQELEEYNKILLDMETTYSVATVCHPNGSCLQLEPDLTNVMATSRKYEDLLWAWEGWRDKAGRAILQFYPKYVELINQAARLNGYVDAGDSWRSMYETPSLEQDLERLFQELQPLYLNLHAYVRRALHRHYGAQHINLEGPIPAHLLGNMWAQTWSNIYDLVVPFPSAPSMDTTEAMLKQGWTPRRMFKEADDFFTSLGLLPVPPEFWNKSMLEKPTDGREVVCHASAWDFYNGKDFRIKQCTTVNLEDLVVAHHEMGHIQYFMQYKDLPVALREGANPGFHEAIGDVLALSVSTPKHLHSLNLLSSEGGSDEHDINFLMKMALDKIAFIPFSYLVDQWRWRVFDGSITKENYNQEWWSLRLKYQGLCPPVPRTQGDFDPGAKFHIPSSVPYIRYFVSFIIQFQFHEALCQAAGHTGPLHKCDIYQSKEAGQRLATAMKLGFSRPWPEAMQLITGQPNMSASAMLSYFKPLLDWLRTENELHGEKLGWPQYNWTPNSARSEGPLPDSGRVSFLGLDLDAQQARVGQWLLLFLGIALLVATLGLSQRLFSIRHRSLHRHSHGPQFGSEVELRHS

T1 sequence (P12821 30-1306): as the sequence (P12821 30-1306, species assumed) above

CC[C@H](C)[C@H](NC(=O)[C@H](CCC(N)=O)NC(=O)[C@@H]1CCCN1C(=O)[C@H](CCCNC(=N)N)NC(=O)[C@@H]1CCCN1C(=O)[C@H](Cc1c[nH]c2ccccc12)NC(=O)[C@@H]1CCC(=O)N1)C(=O)N1CCC[C@H]1C(=O)N1CC=C[C@H]1C(=O)O [ΔPro^9 -BPP9a, <Glu-Trp-Pro-Arg-Pro-Gln-Ile-Pro-ΔPro]
pIC50 [1]: 9.82

CC[C@H](C)[C@H](NC(=O)[C@H](CCC(N)=O)NC(=O)[C@@H]1CCCN1C(=O)[C@H](CCCNC(=N)N)NC(=O)[C@@H]1C=CCN1C(=O)[C@H](Cc1c[nH]c2ccccc12)NC(=O)[C@@H]1CCC(=O)N1)C(=O)N1CCC[C@H]1C(=O)N1CCC[C@H]1C(=O)O [ΔPro^3 -BPP9a, <Glu-Trp-ΔPro-Arg-Pro-Gln-Ile-Pro-Pro]
increase in heart rate (guinea pigs): 0-10% | ill effects in test animals (guinea pigs): no ill effects | abnormalities in the electrocardiogram (guinea pigs): no abnormalities were observed | pIC50 [1]: 9.05

CC[C@H](C)[C@H](NC(=O)[C@H](CCC(N)=O)NC(=O)[C@@H]1C=CCN1C(=O)[C@H](CCCNC(=N)N)NC(=O)[C@@H]1CCCN1C(=O)[C@H](Cc1c[nH]c2ccccc12)NC(=O)[C@@H]1CCC(=O)N1)C(=O)N1CCC[C@H]1C(=O)N1CCC[C@H]1C(=O)O [ΔPro^5 -BPP9a, <Glu-Trp-Pro-Arg-ΔPro-Gln-Ile-Pro-Pro]
increase in heart rate (guinea pigs): 0-10% | ill effects in test animals (guinea pigs): no ill effects | abnormalities in the electrocardiogram (guinea pigs): no abnormalities were observed | pIC50 [1]: 9.05

C[C@H](CS)C(=O)N1CCCC1C(=O)O (stereo in doubt) [SQ 14,225, D-2-methyl-3-mercaptopropanoyl-L-proline]
stability in solution [2]: instability of the drug in solution due to disulfide dimer formation | patients known to benefit from ACE inhibitors who respond adversely (patients; human, in vivo): ≤ 11% | oral effectiveness (patients; oral): effective orally

CC[C@H](C)[C@H](NC(=O)[C@H](CCC(N)=O)NC(=O)[C@@H]1CCCN1C(=O)[C@H](CCCNC(=N)N)NC(=O)[C@@H]1CCCN1C(=O)[C@H](Cc1c[nH]c2ccccc12)NC(=O)[C@@H]1CCC(=O)N1)C(=O)N1CC=C[C@H]1C(=O)N1CCC[C@H]1C(=O)O [ΔPro^8 -BPP9a, <Glu-Trp-Pro-Arg-Pro-Gln-Ile-ΔPro-Pro]
pIC50 [1]: 7.22

CC[C@H](C)[C@H](NC(=O)[C@H](CCC(N)=O)NC(=O)[C@@H]1CCCN1C(=O)[C@H](CCCNC(=N)N)NC(=O)[C@@H]1CCCN1C(=O)[C@H](Cc1c[nH]c2ccccc12)NC(=O)[C@@H]1CCC(=O)N1)C(=O)N1CCC[C@H]1C(=O)N1CCC[C@H]1C(=O)O [BPP9a, <Glu-Trp-Pro-Arg-Pro-Gln-Ile-Pro-Pro]
side reactions of the type observed with SQ 14,225, in clinical use of BPP9a [3]: have not been encountered previously | pIC50 (ACE [4]): ~6.00 | pIC50 (ACE [5]): ~7.55 | pIC50 [1]: 7.55

NC(N)=NCCC[C@H](NC(=O)[C@H](Cc1ccccc1)NC(=O)[C@@H]1CCCN1C(=O)[C@H](CO)NC(=O)[C@H](Cc1ccccc1)NC(=O)CNC(=O)[C@@H]1CCCN1C(=O)[C@@H]1CCCN1C(=O)[C@@H](N)CCCN=C(N)N)C(=O)O [bradykinin, ArgProProGlyPheSerProPheArg] (H-RPPGFSPFR-OH)
pIC50 (ACE [5]): ~6.30

From patent US4191753A, “Anti-hypertensive peptide analogs” (University of Miami, priority 1978, dated 1980)
